SMILES strings stand for the structures. Where only a bound is given, the exact number is not on record here.

For orientation: EC50 means the concentration that produces a half-maximal response. A higher EC50 goes with weaker potency.

For this assay, the target named is AMPK. As to the kind of experiment: AMPK activation, enzyme-linked immunosorbent assay. The class given is biochemical. The note with it: Table 8, compounds of Table 1. As for the experimental part: Compounds of Table 1 were assayed for their ability to activate AMPK using an enzyme-linked immunosorbent assay.
Compounds of Table 2 were assayed for their ability to activate AMPK using an enzyme-linked immunosorbent assay.
Compounds of Table 3 were assayed for their ability to activate AMPK using an enzyme-linked immunosorbent assay.
Compounds of Table 4 were assayed for their ability to activate AMPK using an enzyme-linked immunosorbent assay.
Compounds of Table 5 were assayed for their ability to activate AMPK using an enzyme-linked immunosorbent assay.
Compounds of Table 6 were assayed for their ability to activate AMPK using an enzyme-linked immunosorbent assay.
Compounds of Table 7 were assayed for their ability to activate AMPK using an enzyme-linked immunosorbent assay.
In turn, `O=S(=O)(NC1CCN(Cc2ccc(C(F)(F)F)cc2)CC1)c1ccc(OC2CCN(c3ccc(C(F)(F)F)cc3)CC2)nc1` [Compound 1-58, N-(1-(4-(trifluoromethyl)benzyl)piperidin-4-yl)-6-(1-(4-(trifluoromethyl)phenyl)piperidin-4-yloxy)pyridine-3-sulfonamide] displayed an EC50 of less than 100 nM.

On to `O=S(=O)(NC1CCN(Cc2cccc(C(F)(F)F)c2)CC1)c1ccc(OC2CCN(c3ccc(C(F)(F)F)cc3)CC2)nc1` [Compound 1-59, N-(1-(3-(trifluoromethyl)benzyl)piperidin-4-yl)-6-(1-(4-(trifluoromethyl)phenyl)piperidin-4-yloxy)pyridine-3-sulfonamide], for which the EC50 lay within 100 to 500 nM.

In the case of `O=C(c1ccc(F)cc1)N1CCC(NS(=O)(=O)c2ccc(OC3CCN(c4ccc(C(F)(F)F)cc4)CC3)nc2)CC1` [Compound 1-60, N-(1-(4-fluorobenzoyl)piperidin-4-yl)-6-(1-(4-(trifluoromethyl)phenyl)piperidin-4-yloxy)pyridine-3-sulfonamide], the EC50 was greater than 10000 nM.

The compound `Cc1c(C(=O)NC2CCN(C(=O)OC(C)(C)C)CC2)oc2cc(OC3CCN(c4ccc(C(F)(F)F)cc4)CC3)ccc12` [Compound 1-61, tert-butyl 4-(3-methyl-6-(1-(4-(trifluoromethyl)phenyl)piperidin-4-yloxy)benzofuran-2-carboxamido) piperidine-1-carboxylate] returned an EC50 of 100 to 500 nM.

`Cc1c(C(=O)NC2CCNCC2)oc2cc(OC3CCN(c4ccc(C(F)(F)F)cc4)CC3)ccc12` [Compound 1-62, 3-methyl-N-(piperidin-4-yl)-6-(1-(4-(trifluoromethyl)phenyl)piperidin-4-yloxy)benzofuran-2-carboxamide] came in with an EC50 of 5000 to 10000 nM.

Turning to `Cc1c(C(=O)NC2CCN(Cc3ccc(F)cc3)CC2)oc2cc(OC3CCN(c4ccc(C(F)(F)F)cc4)CC3)ccc12` [Compound 1-63, N-(1-(4-fluorobenzyl)piperidin-4-yl)-3-methyl-6-(1-(4-(trifluoromethyl)phenyl)piperidin-4-yloxy)benzofuran-2-carboxamide], the EC50 is less than 100 nM.

Take `Cc1c(C(=O)NC2CCN(Cc3ccc(C#N)cc3)CC2)oc2cc(OC3CCN(c4ccc(C(F)(F)F)cc4)CC3)ccc12` [Compound 1-64, N-(1-(4-cyanobenzyl)piperidin-4-yl)-3-methyl-6-(1-(4-(trifluoromethyl)phenyl)piperidin-4-yloxy)benzofuran-2-carboxamide]: the EC50 was less than 100 nM.

`Cc1c(C(=O)NC2CCN(Cc3ccncc3)CC2)oc2cc(OC3CCN(c4ccc(C(F)(F)F)cc4)CC3)ccc12` [Compound 1-65, 3-methyl-N-(1-(pyridin-4-ylmethyl)piperidin-4-yl)-6-(1-(4-(trifluoromethyl)phenyl)piperidin-4-yloxy)benzofuran-2-carboxamide] showed an EC50 of less than 100 nM.

As for `Cc1c(C(=O)NC2CCN(Cc3cccc(C#N)c3)CC2)oc2cc(OC3CCN(c4ccc(C(F)(F)F)cc4)CC3)ccc12` [Compound 1-66, N-(1-(3-cyanobenzyl)piperidin-4-yl)-3-methyl-6-(1-(4-(trifluoromethyl)phenyl)piperidin-4-yloxy)benzofuran-2-carboxamide], the EC50 is less than 100 nM.

Regarding `Cc1c(C(=O)NC2CCN(Cc3ccccc3C#N)CC2)oc2cc(OC3CCN(c4ccc(C(F)(F)F)cc4)CC3)ccc12` [Compound 1-67, N-(1-(2-cyanobenzyl)piperidin-4-yl)-3-methyl-6-(1-(4-(trifluoromethyl)phenyl)piperidin-4-yloxy)benzofuran-2-carboxamide], the EC50 is less than 100 nM.

In turn, `Cc1c(C(=O)NC2CCN(Cc3ccccn3)CC2)oc2cc(OC3CCN(c4ccc(C(F)(F)F)cc4)CC3)ccc12` [Compound 1-68, 3-methyl-N-(1-(pyridin-2-ylmethyl)piperidin-4-yl)-6-(1-(4-(trifluoromethyl)phenyl)piperidin-4-yloxy)benzofuran-2-carboxamide] displayed an EC50 of less than 100 nM.

`Cc1c(C(=O)NC2CCN(Cc3cccnc3)CC2)oc2cc(OC3CCN(c4ccc(C(F)(F)F)cc4)CC3)ccc12` [Compound 1-69, 3-methyl-N-(1-(pyridin-3-ylmethyl)piperidin-4-yl)-6-(1-(4-(trifluoromethyl)phenyl)piperidin-4-yloxy)benzofuran-2-carboxamide]: the EC50 was less than 100 nM.

In turn, `N#Cc1ccc(CN2CCC(Oc3ccc4oc(C(=O)NC5CCN(Cc6ccccc6)CC5)cc4c3)CC2)cc1` [Compound 1-70, N-(1-benzylpiperidin-4-yl)-5-(1-(4-cyanobenzyl)piperidin-4-yloxy)benzofuran-2-carboxamide] gave an EC50 of less than 100 nM.

Regarding `N#Cc1ccc(N2CCC(Oc3ccc4oc(C(=O)NC5CCN(Cc6ccccc6)CC5)cc4c3)CC2)cc1` [Compound 1-71, N-(1-benzylpiperidin-4-yl)-5-(1-(4-cyanophenyl)piperidin-4-yloxy)benzofuran-2-carboxamide], the EC50 is less than 100 nM.

Consider `O=C(NC1CCN(Cc2ccccc2)CC1)c1cc2cc(OC3CCN(Cc4ccc(Cl)cc4)CC3)ccc2o1` [Compound 1-72, N-(1-benzylpiperidin-4-yl)-5-(1-(4-chlorobenzyl)piperidin-4-yloxy)benzofuran-2-carboxamide], for which the EC50 lay in the range of 100 to 500 nM.

As to `O=C(NC1CCN(Cc2ccccc2)CC1)c1cc2cc(OC3CCN(Cc4cccc(C(F)(F)F)c4)CC3)ccc2o1` [Compound 1-73, N-(1-benzylpiperidin-4-yl)-5-(1-(3-(trifluoromethyl)benzyl)piperidin-4-yloxy)benzofuran-2-carboxamide], the concentration for a half-maximal effect (EC50) is 500 to 1000 nM.

`O=C(NC1CCN(Cc2ccccc2)CC1)c1cc2cc(OC3CCN(Cc4ccc(F)c(F)c4)CC3)ccc2o1` [Compound 1-74, N-(1-benzylpiperidin-4-yl)-5-(1-(3,4-difluorobenzyl)piperidin-4-yloxy)benzofuran-2-carboxamide] had an EC50 of 100 to 500 nM.

For `O=C(NC1CCN(Cc2ccccc2)CC1)c1cc2cc(OC3CCN(c4ccc(C(F)(F)F)cc4)CC3)ccc2o1` [Compound 1-75, N-(1-benzylpiperidin-4-yl)-5-(1-(4-(trifluoromethyl)phenyl)piperidin-4-yloxy)benzofuran-2-carboxamide], the half-maximal effective concentration (EC50) is less than 100 nM.

Regarding `O=C(NC1CCN(Cc2ccncc2)CC1)c1cc2cc(OC3CCN(c4ccc(C(F)(F)F)cc4)CC3)ccc2o1` [Compound 1-76, N-(1-(pyridin-4-ylmethyl)piperidin-4-yl)-5-(1-(4-(trifluoromethyl)phenyl)piperidin-4-yloxy)benzofuran-2-carboxamide], the EC50 was 100 to 500 nM.

Turning to `O=C(NC1CCN(Cc2ccncc2)CC1)c1cc2cc(OC3CCN(Cc4ccc(Cl)cc4)CC3)ccc2o1` [Compound 1-77, 5-(1-(4-chlorobenzyl)piperidin-4-yloxy)-N-(1-(pyridin-4-ylmethyl)piperidin-4-yl)benzofuran-2-carboxamide], the EC50 was in the range of 100 to 500 nM.

As to `O=C(NC1CCN(Cc2ccncc2)CC1)c1cc2cc(OC3CCN(c4ccc(OC(F)(F)F)cc4)CC3)ccc2o1` [Compound 1-78, N-(1-(pyridin-4-ylmethyl)piperidin-4-yl)-5-(1-(4-(trifluoromethoxy)phenyl)piperidin-4-yloxy)benzofuran-2-carboxamide], the EC50 is less than 100 nM.

As for `N#Cc1ccc(CN2CCC(Oc3ccc4oc(C(=O)NC5CCN(Cc6ccncc6)CC5)cc4c3)CC2)cc1` [Compound 1-79, 5-(1-(4-cyanobenzyl)piperidin-4-yloxy)-N-(1-(pyridin-4-ylmethyl)piperidin-4-yl)benzofuran-2-carboxamide], the EC50 fell in the range of 100 to 500 nM.

In the case of `O=C(NC1CCN(Cc2ccccc2)CC1)c1cc2cc(OC3CCN(c4ccc(OC(F)(F)F)cc4)CC3)ccc2o1` [Compound 1-80, N-(1-benzylpiperidin-4-yl)-5-(1-(4-(trifluoromethoxy)phenyl)piperidin-4-yloxy)benzofuran-2-carboxamide], the 50% effective concentration (EC50) is less than 100 nM.

On to `CC(C)(C)OC(=O)N1CCC(NC(=O)c2cc3ccc(OC4CCN(c5ccc(OC(F)(F)F)cc5)CC4)cc3o2)CC1` [Compound 1-81, tert-butyl 4-(6-(1-(4-(trifluoromethoxy)phenyl)piperidin-4-yloxy)benzofuran-2-carboxamido) piperidine-1-carboxylate], for which the EC50 lay in the range of 100 to 500 nM.

`CC(C)(C)OC(=O)N1CCC(NC(=O)c2cc3ccc(OC4CCN(c5ccc(C(F)(F)F)cc5)CC4)cc3o2)CC1` [Compound 1-82, tert-butyl 4-(6-(1-(4-(trifluoromethyl)phenyl)piperidin-4-yloxy)benzofuran-2-carboxamido) piperidine-1-carboxylate] came in with an EC50 of 100 to 500 nM.

`O=C(NC1CCNCC1)c1cc2ccc(OC3CCN(c4ccc(OC(F)(F)F)cc4)CC3)cc2o1` [Compound 1-83, N-(piperidin-4-yl)-6-(1-(4-(trifluoromethoxy)phenyl)piperidin-4-yloxy)benzofuran-2-carboxamide] showed an EC50 of 100 to 500 nM.

For the compound `O=C(NC1CCNCC1)c1cc2ccc(OC3CCN(c4ccc(C(F)(F)F)cc4)CC3)cc2o1` [Compound 1-84, N-(piperidin-4-yl)-6-(1-(4-(trifluoromethyl)phenyl)piperidin-4-yloxy)benzofuran-2-carboxamide], the EC50 was in the range of 5000 to 10000 nM.

`CC(C)(C)OC(=O)N1CCC(NC(=O)c2cc3cc(OC4CCN(c5ccc(C(F)(F)F)cc5)CC4)ccc3o2)CC1` [Compound 1-85, tert-butyl 4-(5-(1-(4-(trifluoromethyl)phenyl)piperidin-4-yloxy)benzofuran-2-carboxamido) piperidine-1-carboxylate] gave an EC50 of 500 to 1000 nM.

`O=C(NC1CCNCC1)c1cc2cc(OC3CCN(c4ccc(C(F)(F)F)cc4)CC3)ccc2o1` [Compound 1-86, N-(piperidin-4-yl)-5-(1-(4-(trifluoromethyl)phenyl)piperidin-4-yloxy)benzofuran-2-carboxamide] came in with an EC50 greater than 10000 nM.

These data come from patent US9409884B2 (Rigel Pharmaceuticals, Inc., priority 2012, dated 2016).
